Assay results from US8575307B2, “Protein kinase C inhibitors for prevention of insulin resistance and type 2 diabetes” (Hadasit Medical Research Services & Development Ltd., priority 2005, dated 2013).
Square brackets hold non-standard residues; d marks the D form. * marks the point of attachment. Myristoyl = CCCCCCCCCCCCCC(=O)*

Key:
[1] = system: nutritionally induced type 2 diabetes in Psammomys obesus; assay: Nutritionally induced diabetes in Psammomys obesus model: whole blood glucose by glucometer; type: in vivo; details: diabetic Psammomys on high energy diet; three intraperitoneal injections of 10 mg/kg, 5 days apart
Protocol: Psammomys obesus gerbils males or females weighing 160-200 g in the fed state were used. […] The animals were then injected intraperitoneally with 10 mg/kg of the peptide dissolved in dimethylsulphoxide solvent (or with solvent alone in controls). […] Whole blood glucose was measured by a glucometer on a minidroplet of blood withdrawn from the end of the tail. Three injections were given 5 days apart and after 14 days or earlier the high blood glucose levels of the animals became normal, the controls remained at the 300-400 mg/dl level. The normal level lasted at least for 3 to 5 days after the last injection. […] The line with asterisk represents the control animal. Other lines are those of individual injected animals.

[2] = system: pancreatic beta cells; assay: Histology (hematoxylin-eosin) and insulin immunostaining of pancreatic beta cells; type: in vivo, Psammomys obesus; details: diabetic Psammomys, peptide treatment for 14 days
Protocol: For assaying the insulin signaling pathway components and electronmicroscopic examination of the pancreatic beta cells, animals were killed by decapitation in the fed state in the morning three days after the third intraperitoneal peptide injection. Blood was collected and serum insulin levels was determined by radioimmunoassay, using anti-human antibodies. The gastrocnemius muscles from both legs were excised, immediately frozen in liquid nitrogen, and then stored at −80° C. The electronmicroscopic examination of pancreatic beta cells was performed on slices of pancreatic paraffin blocks according to the method of Joins et al., 2002, Virchovs Arch 440: 63-69. The histologic and immunostaining properties of the pancreatic beta cells in diabetic Psammomys gerbils injected with peptide 12 were investigated in order to check whether the beta cells are protected from hyperglycemia. […] FIGS. 5A and 5B describe representative hematoxylin-eosin stained beta cell and insulin immunostained beta cells in diabetic and treated animals.

[3] = system: glucose transporter GLUT4 protein; assay: Immunoblot of GLUT4 protein amount in muscle lysates; type: in vivo, Psammomys obesus; details: treated vs non-treated animal
Protocol: (§1) For assaying the insulin signaling pathway components and electronmicroscopic examination of the pancreatic beta cells, animals were killed by decapitation in the fed state in the morning three days after the third intraperitoneal peptide injection. Blood was collected and serum insulin levels was determined by radioimmunoassay, using anti-human antibodies. The gastrocnemius muscles from both legs were excised, immediately frozen in liquid nitrogen, and then stored at −80° C.
(§2) Immunoblot analysis of insulin signaling molecules were performed using muscle homogenates prepared in a homogenization buffer that contained 20 mmol/l HEPES, 8 mmol/l EDTA, 0.2 mmol/l Na3VO4, 10 mmol/l Na4P2O7, 2.5 mmol/l, 2 mM phenylmathylsulfonyl fluorid, 160 mmol/l NaF, 2 mmol/l DCA, 1% Triton X-100, 1% protease inhibitor cocktail and 1% phaphatase inhibitor cocktail (Sigma®) pH 7.4. Equal amount of cell lysate were dissolved in Laemmli buffer and subjected to SDS-PAGE gel separation. The separated proteins were transferred to nitrocellulose membranes. […] All protein data were quantified by densitometry. […]
(§3) The extent of phosphorylation of the components of the insulin signaling pathway (signal proteins) in the muscle lysates of the treated and non-treated animals “ ” was investigated. FIG. 6 presents the relative extent of serine phosphorylation of IRS by PKC as determined by immunobloting with a specific antibody. […]

[4] = system: PKB/AKT; assay: Immunoblot of serine phosphorylation of PKB/AKT in muscle lysates; type: in vivo, Psammomys obesus; details: treated vs non-treated animal
Protocol: as §1, §2, §3

[5] = system: serine phosphorylation of IRS by PKC; assay: Immunoblot of serine phosphorylation of IRS in muscle lysates; type: in vivo, Psammomys obesus; details: treated vs non-treated animal
Protocol: as §1, §2, §3

myristoyl-Gly-Asn-Leu-Met-Phe-Gln-Ile-Gln-Arg-Ser-Arg-Lys-Phe-amide (Myristoyl-GNLMFQIQRSRKF-NH2; SMILES CCCCCCCCCCCCCC(=O)NCC(=O)N[C@@H](CC(N)=O)C(=O)N[C@@H](CC(C)C)C(=O)N[C@@H](CCSC)C(=O)N[C@@H](Cc1ccccc1)C(=O)N[C@@H](CCC(N)=O)C(=O)N[C@H](C(=O)N[C@@H](CCC(N)=O)C(=O)N[C@@H](CCCNC(=N)N)C(=O)N[C@@H](CO)C(=O)N[C@@H](CCCNC(=N)N)C(=O)N[C@@H](CCCCN)C(=O)N[C@@H](Cc1ccccc1)C(N)=O)[C@@H](C)CC) [peptide 16, myristoylated peptide analog derived from the αD region of PKC-ε]
hypoglycemic effect (blood glucose) [1]: hypoglycemic effect

myristoyl-Gly-Met-Ala-(D)Lys-Gln-Pro-Pro-Phe-amide (Myristoyl-GMA[dK]QPPF-NH2; SMILES CCCCCCCCCCCCCC(=O)NCC(=O)N[C@@H](CCSC)C(=O)N[C@@H](C)C(=O)N[C@H](CCCCN)C(=O)N[C@@H](CCC(N)=O)C(=O)N1CCC[C@H]1C(=O)N1CCC[C@H]1C(=O)N[C@@H](Cc1ccccc1)C(N)=O) [peptide 7, myristoylated peptide analog derived from the HJ region of PKC-ε]
hypoglycemic effect (blood glucose) [1]: hypoglycemic effect

myristoyl-Gly-Phe-Gln-Ile-Gln-Arg-Ser-Arg-Lys-Phe-Asn-amide (Myristoyl-GFQIQRSRKFN-NH2; SMILES CCCCCCCCCCCCCC(=O)NCC(=O)N[C@@H](Cc1ccccc1)C(=O)N[C@@H](CCC(N)=O)C(=O)N[C@H](C(=O)N[C@@H](CCC(N)=O)C(=O)N[C@@H](CCCNC(=N)N)C(=O)N[C@@H](CO)C(=O)N[C@@H](CCCNC(=N)N)C(=O)N[C@@H](CCCCN)C(=O)N[C@@H](Cc1ccccc1)C(=O)N[C@@H](CC(N)=O)C(N)=O)[C@@H](C)CC) [peptide 12, myristoylated peptide analog derived from the αD region of PKC-ε]
immunostainable insulin content of the pancreatic beta cells [2]: replenished | beta cell structure ([2]; hematoxylin-eosin staining): markedly improved | hypoglycemic effect (blood glucose) [1]: hypoglycemic effect | relative amount of the glucose transporter GLUT4 protein [3]: elevated | relative extent of phosphorylation of serine in PKB/AKT [4]: reduced | relative extent of serine phosphorylation of IRS by PKC [5]: much lower
